ChEMBL document CHEMBL3044573, “Neurological activities of lapachol and its furano derivatives from Kigelia africana” (Med Chem Res, 2013)
Calls of active or inactive are those of the source. The rule behind the calls is not given here.

How the values were obtained:
Mus musculus [1] = assay: Antidepressant activity in albino Mus musculus (mouse) assessed as reduction in immobility time at 100 mg/kg, ip administered 30 min prior to testing by forced-swim test relative to control; format: functional, organism-based; design: dose 100 mg/kg
Mus musculus [2] = assay: Antidepressant activity in albino Mus musculus (mouse) assessed as reduction in immobility time at 50 mg/kg, ip administered 30 min prior to testing by forced-swim test relative to control; format: functional, organism-based; design: dose 50 mg/kg
Mus musculus [3] = assay: Anxiolytic activity in albino Mus musculus (mouse) assessed as decrease in rearing behaviour at 50 mg/kg, ip administered 30 min prior to testing by open-field test relative to control; format: functional, organism-based; design: dose 50 mg/kg
Mus musculus [4] = assay: Stimulation of central nervous system in albino Mus musculus (mouse) assessed as increase in number of lines crossed at 50 mg/kg, ip administered 30 min prior to testing by open-feild test relative to control; format: ADME, organism-based; design: dose 50 mg/kg, route intraperitoneal; conditions: in vivo, 0.5 h
Mus musculus [5] = assay: Anxiolytic activity in albino Mus musculus (mouse) assessed as decrease in rearing behaviour at 100 mg/kg, ip administered 30 min prior to testing by open-field test relative to control; format: functional, organism-based; design: dose 100 mg/kg
Mus musculus [6] = assay: Anxiolytic activity in albino Mus musculus (mouse) assessed as increase in time spent on open arm at 50 mg/kg, ip administered 30 min prior to testing by elevated-plus maze test relative to control; format: functional, organism-based; design: dose 50 mg/kg
Mus musculus [7] = assay: Anxiolytic activity in albino Mus musculus (mouse) assessed as increase in number of open arm enteries at 100 mg/kg, ip administered 30 min prior to testing by elevated-plus maze test relative to control; format: functional, organism-based; design: dose 100 mg/kg
Mus musculus [8] = assay: Anxiolytic activity in albino Mus musculus (mouse) assessed as increase in time spent on open arm at 100 mg/kg, ip administered 30 min prior to testing by elevated-plus maze test relative to control; format: functional, organism-based; design: dose 100 mg/kg
Mus musculus [9] = assay: Anxiolytic activity in albino Mus musculus (mouse) assessed as increase in number of open arm enteries at 50 mg/kg, ip administered 30 min prior to testing by elevated-plus maze test relative to control; format: functional, organism-based; design: dose 50 mg/kg
Mus musculus [10] = assay: Antidepressant activity in albino Mus musculus (mouse) assessed as reduction in immobility time at 15 mg/kg, ip administered 30 min prior to testing by forced-swim test relative to control; format: functional, organism-based; design: dose 15 mg/kg
Mus musculus [11] = assay: Stimulation of central nervous system in albino Mus musculus (mouse) assessed as increase in number of lines crossed at 100 mg/kg, ip administered 30 min prior to testing by open-feild test relative to control; format: ADME, organism-based; design: dose 100 mg/kg, route intraperitoneal; conditions: in vivo, 0.5 h
Mus musculus [12] = assay: Stimulation of central nervous system in albino Mus musculus (mouse) assessed as increase in rearing behaviour at 100 mg/kg, ip administered 30 min prior to testing by open-feild test relative to control; format: ADME, organism-based; design: dose 100 mg/kg, route intraperitoneal; conditions: in vivo, 0.5 h
Mus musculus [13] = assay: Stimulation of central nervous system in albino Mus musculus (mouse) assessed as increase in rearing behaviour at 50 mg/kg, ip administered 30 min prior to testing by open-feild test relative to control; format: ADME, organism-based; design: dose 50 mg/kg, route intraperitoneal; conditions: in vivo, 0.5 h

SMILES | Activity (Mus musculus [1]) | Activity (Mus musculus [2]) | Activity (Mus musculus [3]) | Activity (Mus musculus [4]) | Activity (Mus musculus [5]) | Activity (Mus musculus [6]) | Activity (Mus musculus [7]) | Activity (Mus musculus [8]) | Activity (Mus musculus [9]) | Activity (Mus musculus [10]) | Activity (Mus musculus [11]) | Activity (Mus musculus [12]) | Activity (Mus musculus [13])
CC(=O)c1cc2c(o1)C(=O)c1ccccc1C2=O [NAPABUCASIN] | Active | Active | Active | Toxic | Active | – | – | – | – | – | – | – | –
CC1(C)C=CC2=C(O1)C(=O)c1ccccc1C2=O | – | – | – | – | – | inactive | inactive | inactive | inactive | – | – | – | –
CN(C)CCCN1c2ccccc2CCc2ccccc21 | – | – | – | – | – | – | – | – | – | Active | – | – | –
CC(C)=CCC1=C(O)C(=O)c2ccccc2C1=O [LAPACHOL] | – | Active | – | – | – | inactive | Active | inactive | Active | – | Toxic | Toxic | –
CC(O)c1cc2c(o1)C(=O)c1ccccc1C2=O (stereo unspecified) | – | Active | Active | – | – | – | Active | Active | – | – | Toxic | Toxic | –
CC[C@H](CC[C@@H](C)[C@H]1CC[C@H]2[C@@H]3CC=C4C[C@@H](O)CC[C@]4(C)[C@H]3CC[C@]12C)C(C)C [BETA-SITOSTEROL] | inactive | inactive | – | Toxic | – | inactive | Active | inactive | Active | – | – | – | Toxic
